# Laboratory results: ChEMBL document CHEMBL1201862, “PubChem BioAssay data set” (2004)
# The source made the active and inactive calls.
# Legend:
# [1] = antiviral protection against BTV-induced cell death – arbovirus, BSR cells, confirmation (AID 1250); assay type: functional;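 note: protection from viral cytopathic effect measured as cell viability by ATP luminescence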
# H9c2 = experiment: cells; assay type: functional, cell-based; conditions: Rattus norvegicus, H9c2, Myocardium;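 note: confirmatory concentration-response retest of ultra-high-throughput screening hits for modulation of myocardial damage; cell death induced by hydrogen peroxide oxidative stress; compound pretreatment for 60 min then peroxide exposure for 2 h; potency is for protecting the cells against peroxide damage rather than for killing them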
# [2] = target: Mothers against decapentaplegic homolog 3 (Homo sapiens, UniProt P84022); experiment: blockers of Smad3 complex formation in lysate – cell lysate, secondary confirmation, chemiluminescent ELISA, HEK293 lysate, dose response (AID 1058); assay type: functional
# [3] = target: Metabotropic glutamate receptor 4 (Rattus norvegicus, UniProt P31423); experiment: Modulation of the Metabotropic Glutamate Receptor mGluR4: Rat PAM Potency. [Related pubchem assays (depositor defined):AID2437, AID2807]; assay type: functional
# [4] = target: Eukaryotic translation initiation factor 4H (Homo sapiens, UniProt Q15056); experiment: eIF4H binding inhibition – biochemical, uHTS, fluorescence polarization, translation initiation inhibitor project, primary screen (AID 2012)
# [5] = Trypanosoma cruzi growth suppression in host cells – NIH3T3 host cells, beta-gal luminescence, confirmation (AID 2044); assay type: functional, cell-based;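 note: intracellular parasites grown in NIH/3T3 mouse fibroblasts as host cells; luminescent beta-galactosidase reporter signal from transgenic T. cruzi replicating inside host cells; inhibitors lower the luminescence signal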
# [6] = NIH3T3 cell viability loss – ATP luminescence, mouse fibroblasts, counter-screen, dose response (AID 2010); assay type: functional, cell-based;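 note: cells exposed to compound for about 90 hours before reading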
# [7] = target: Polyadenylate-binding protein 1 (Homo sapiens, UniProt P11940); experiment: blockers of PABP interaction with poly(A) – biochemical, fluorescence polarization, […] (AID 2014)
# [8] = target: G2/mitotic-specific cyclin-B1 (Homo sapiens, UniProt P14635); experiment: Counterscreen assay for inhibitors of Wee1 degradation: dose response cell-based assay to identify inhibitors of cyclin B degradation. [Related pubchem assays: 1410, 1321 ]; assay type: functional
# Wee1-like protein kinase = Wee1-like protein kinase (Homo sapiens, UniProt P30291); experiment: Dose Response Cell-based Assay for Inhibitors of Wee1 Degradation. [Related pubchem assays: 1410, 1321 ]; assay type: functional
# [9] = HEK-293T viability loss after treatment – luminescence, T-cell screen hits, cytotoxicity control for TCR NF-kB inhibitor project, dose response (AID 489026); assay type: functional, cell-based;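 note: cells exposed to compound about 14 hours before the viability readout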
# Cytochrome P450 2C19 = Cytochrome P450 2C19 (Homo sapiens, UniProt P33261); experiment: qHTS Assay for Inhibitors and Substrates of Cytochrome P450 2C19. [Related pubchem assays: 410 ]; assay type: ADME; conditions: read-out: Potency
# Cytochrome P450 2C9 = Cytochrome P450 2C9 (Homo sapiens, UniProt P11712); conditions: Potency
# [10] = target: T1, Eukaryotic translation initiation factor 2-alpha kinase 3 (Homo sapiens, UniProt Q9NZJ5); experiment: Dose response cell-based high-throughput screening assay to measure PERK inhibition. [Related pubchem assays: 1416 ]; assay type: functional
# [11] = target: T1, Eukaryotic translation initiation factor 2-alpha kinase 3; experiment: Counterscreen assay for PERK inhibitors: Dose response cell-based high throughput screening assay to measure inhibition of PERK at 6 hours. [Related pubchem assays: 1522, 1416 ]; assay type: functional
# [12] = target: Melanin-concentrating hormone receptor 1 (Homo sapiens, UniProt Q99705); experiment: Late-stage fluorescence-based counterscreen for antagonists of the G-protein coupled receptor 7 (GPR7): cell-based dose response assay to identify antagonists of the melanin-concentrating hormone receptor 1 (MCHR1). [Related pubchem assays (depositor defined):AID1861, AID1880, AID1952, AID2148, AID2251, AID2257, AID485339]; assay type: functional;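 note: stimulated with 30 nM MCH peptide agonist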
# [13] = target: Lysosomal acid glucosylceramidase (Homo sapiens, UniProt P04062); experiment: Dose response cell-based high throughput screening assay to identify enhancers of beta-glucosidase activity. [Related pubchem assays: 784 ]; assay type: functional
# [14] = target: T2, Neuropeptide Y receptor type 1 (Homo sapiens, UniProt P25929); assay type: functional;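 note: HEK293 cells with a CNG channel challenged with NPY then isoproterenol; potency as antagonist that reverses NPY suppression of cAMP signal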
# T2 sequence (P25929 whole entry): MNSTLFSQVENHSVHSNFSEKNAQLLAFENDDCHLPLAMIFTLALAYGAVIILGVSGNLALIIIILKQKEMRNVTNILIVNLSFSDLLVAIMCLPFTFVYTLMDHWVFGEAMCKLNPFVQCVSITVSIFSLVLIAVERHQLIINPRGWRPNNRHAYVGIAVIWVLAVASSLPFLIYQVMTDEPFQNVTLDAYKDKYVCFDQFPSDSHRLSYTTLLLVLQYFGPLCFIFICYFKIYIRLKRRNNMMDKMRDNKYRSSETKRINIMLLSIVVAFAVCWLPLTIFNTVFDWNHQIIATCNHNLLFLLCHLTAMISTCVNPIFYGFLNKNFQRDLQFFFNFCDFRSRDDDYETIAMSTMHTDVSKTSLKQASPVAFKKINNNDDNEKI
# [15] = target: T3, Neuropeptide Y receptor type 2 (Homo sapiens, UniProt P49146); assay type: functional, cell-based;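 note: HEK293 cells expressing the receptor and a CNG channel; stimulus was NPY near EC95 followed by isoproterenol to raise cAMP; antagonist potency measured as restoring cAMP signal that NPY suppresses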
# T3 sequence (P49146 whole entry): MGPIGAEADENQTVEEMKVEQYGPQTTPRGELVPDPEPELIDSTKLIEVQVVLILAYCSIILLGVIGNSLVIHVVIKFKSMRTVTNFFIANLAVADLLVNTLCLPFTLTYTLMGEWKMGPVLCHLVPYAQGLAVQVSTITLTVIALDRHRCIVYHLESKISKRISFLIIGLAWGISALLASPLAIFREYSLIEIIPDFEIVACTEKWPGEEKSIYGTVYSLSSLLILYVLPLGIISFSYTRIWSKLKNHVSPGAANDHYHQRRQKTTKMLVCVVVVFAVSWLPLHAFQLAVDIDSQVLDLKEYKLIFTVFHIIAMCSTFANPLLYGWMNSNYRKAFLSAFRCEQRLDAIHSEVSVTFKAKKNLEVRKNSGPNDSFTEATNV
# Cytochrome P450 3A4 = Cytochrome P450 3A4 (Homo sapiens, UniProt P08684); conditions: Potency;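 note: confirmatory qHTS run detecting inhibitors and substrates of CYP3A4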
# [16] = target: T4, Heat shock 70 kDa protein 1A (Homo sapiens, UniProt P0DMV8); experiment: small-molecule inhibition of Hsp70 – biochemical, TR-FRET (AID 786)
# [17] = target: T4, Heat shock 70 kDa protein 1A; experiment: small molecules displacing fluorescent ligand from Hsp70 – biochemical, fluorescence polarization, primary screen (AID 583)
# [18] = mRNA 3' processing disruption, beta-gal signal increase – luminescence, S. cerevisiae SKY197-pL101, dose response (AID 2525); assay type: functional, cell-based
# [19] = Luminescence Cell-Based Dose Confirmation HTS to Identify Inhibitors of Polyadenylation.; assay type: functional
# [20] = target: Photoreceptor-specific nuclear receptor (Homo sapiens, UniProt Q9Y5X4); assay type: functional;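 note: potency for compounds that break the NR2E3 corepressor complex and count as activators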
# [21] = target: Peroxisome proliferator-activated receptor gamma/Nuclear receptor corepressor 2 (Homo sapiens, UniProt P37231+Q9Y618); assay type: functional
# Melanocortin receptor 4 = Melanocortin receptor 4 (Homo sapiens, UniProt P32245); experiment: inhibitors of MC4R cAMP signaling – cell-based, TR-FRET, biased antagonists, dose response (AID 602298); assay type: functional;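 note: antagonist potency against agonist-stimulated cAMP production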
# [22] = cAMP pathway inhibition in counterscreen cell line – TR-FRET cAMP detection, counter-screen for MC4R biased antagonist project, dose response (AID 602305); assay type: functional, cell-based;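 note: U2OS cells stimulated with forskolin near its EC80 as the cAMP inducer; potency is for inhibition of forskolin-stimulated cAMP signaling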
# [23] = Counterscreen for IDE inhibitors: Luminescence-based cell-based high throughput dose response assay to identify compounds that are cytotoxic to HEK cells. [Related pubchem assays: 434962 (Primary screen (IDE inhibitors in singlicate)), 449730 (Counterscreen (Cytotoxicity in triplicate)), 435028 (Confirmation (IDE inhibitors in triplicate)) …; assay type: functional; conditions: HEK293
# Insulin-degrading enzyme = target: T5, Insulin-degrading enzyme (Homo sapiens, UniProt P14735); experiment: Dose Response: Fluorescence polarization-based cell-based high throughput dose response assay for inhibitors of insulin-degrading enzyme (IDE). [Related pubchem assays: 434962 (Primary screen (IDE inhibitors in singlicate)), 449730 (Counterscreen (Cytotoxicity in triplicate)), 435028 (Confirmation (IDE inhibitors in triplicate)), 434984 (Summary …; assay type: functional
# T5 sequence (P14735 whole entry): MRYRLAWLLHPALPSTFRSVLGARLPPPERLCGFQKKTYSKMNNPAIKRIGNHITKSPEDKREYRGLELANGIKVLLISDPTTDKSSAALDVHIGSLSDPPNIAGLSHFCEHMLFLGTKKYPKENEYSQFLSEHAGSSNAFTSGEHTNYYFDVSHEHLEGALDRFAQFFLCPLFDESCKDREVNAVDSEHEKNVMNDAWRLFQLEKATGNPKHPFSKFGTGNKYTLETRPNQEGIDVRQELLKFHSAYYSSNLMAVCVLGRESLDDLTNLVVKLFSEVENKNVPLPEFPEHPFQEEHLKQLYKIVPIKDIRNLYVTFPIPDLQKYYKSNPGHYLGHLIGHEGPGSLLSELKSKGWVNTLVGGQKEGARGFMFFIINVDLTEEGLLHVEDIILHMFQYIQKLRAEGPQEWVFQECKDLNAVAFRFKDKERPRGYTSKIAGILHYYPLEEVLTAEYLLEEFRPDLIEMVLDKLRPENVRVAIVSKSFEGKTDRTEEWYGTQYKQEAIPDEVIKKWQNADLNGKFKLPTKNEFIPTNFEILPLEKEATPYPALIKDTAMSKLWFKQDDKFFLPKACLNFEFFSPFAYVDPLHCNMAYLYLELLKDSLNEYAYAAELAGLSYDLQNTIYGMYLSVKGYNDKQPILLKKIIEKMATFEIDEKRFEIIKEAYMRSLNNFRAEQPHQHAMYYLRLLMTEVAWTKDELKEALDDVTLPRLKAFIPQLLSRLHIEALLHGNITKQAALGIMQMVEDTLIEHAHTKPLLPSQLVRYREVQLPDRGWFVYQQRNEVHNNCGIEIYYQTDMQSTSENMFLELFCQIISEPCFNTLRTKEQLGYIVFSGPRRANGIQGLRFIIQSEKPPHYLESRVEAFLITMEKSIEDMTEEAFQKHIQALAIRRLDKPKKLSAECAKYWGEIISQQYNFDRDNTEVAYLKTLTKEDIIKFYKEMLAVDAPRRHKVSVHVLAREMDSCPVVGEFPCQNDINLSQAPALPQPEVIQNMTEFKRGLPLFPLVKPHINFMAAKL
# Vasopressin V1a receptor = Vasopressin V1a receptor (Homo sapiens, UniProt P37288); experiment: Counterscreen for Oxytocin Receptor (OXTR) agonists: Fluorescence-based cell-based high throughput dose response assay to identify agonists of the vasopressin 1 receptor (V1R). [Related pubchem assays: 2435 (Primary screen (OXTR agonists in singlicate)), 434991 (Counterscreen (V1R agonists in triplicate)), 2482 (Summary (OXTR agonists)) …; assay type: functional
# Oxytocin receptor = Oxytocin receptor (Homo sapiens, UniProt P30559); experiment: Fluorescence-based cell-based high throughput dose response assay for agonists of the Oxytocin Receptor (OXTR). [Related pubchem assays: 2435 (Primary screen (OXTR agonists in singlicate)), 434991 (Counterscreen (V1R agonists in triplicate)), 2482 (Summary (OXTR agonists)), 434963 (Confirmation screen (OXTR agonists in triplicate))]; assay type: functional
# Vero = experiment: cells; assay type: functional; conditions: Chlorocebus sabaeus
# Trypanosoma cruzi = experiment: anti-trypanosomal activity in host cells – cell-based, plate reader, dry powder, set 3, dose response (AID 493197); assay type: functional
# T1 sequence (Q9NZJ5 whole entry): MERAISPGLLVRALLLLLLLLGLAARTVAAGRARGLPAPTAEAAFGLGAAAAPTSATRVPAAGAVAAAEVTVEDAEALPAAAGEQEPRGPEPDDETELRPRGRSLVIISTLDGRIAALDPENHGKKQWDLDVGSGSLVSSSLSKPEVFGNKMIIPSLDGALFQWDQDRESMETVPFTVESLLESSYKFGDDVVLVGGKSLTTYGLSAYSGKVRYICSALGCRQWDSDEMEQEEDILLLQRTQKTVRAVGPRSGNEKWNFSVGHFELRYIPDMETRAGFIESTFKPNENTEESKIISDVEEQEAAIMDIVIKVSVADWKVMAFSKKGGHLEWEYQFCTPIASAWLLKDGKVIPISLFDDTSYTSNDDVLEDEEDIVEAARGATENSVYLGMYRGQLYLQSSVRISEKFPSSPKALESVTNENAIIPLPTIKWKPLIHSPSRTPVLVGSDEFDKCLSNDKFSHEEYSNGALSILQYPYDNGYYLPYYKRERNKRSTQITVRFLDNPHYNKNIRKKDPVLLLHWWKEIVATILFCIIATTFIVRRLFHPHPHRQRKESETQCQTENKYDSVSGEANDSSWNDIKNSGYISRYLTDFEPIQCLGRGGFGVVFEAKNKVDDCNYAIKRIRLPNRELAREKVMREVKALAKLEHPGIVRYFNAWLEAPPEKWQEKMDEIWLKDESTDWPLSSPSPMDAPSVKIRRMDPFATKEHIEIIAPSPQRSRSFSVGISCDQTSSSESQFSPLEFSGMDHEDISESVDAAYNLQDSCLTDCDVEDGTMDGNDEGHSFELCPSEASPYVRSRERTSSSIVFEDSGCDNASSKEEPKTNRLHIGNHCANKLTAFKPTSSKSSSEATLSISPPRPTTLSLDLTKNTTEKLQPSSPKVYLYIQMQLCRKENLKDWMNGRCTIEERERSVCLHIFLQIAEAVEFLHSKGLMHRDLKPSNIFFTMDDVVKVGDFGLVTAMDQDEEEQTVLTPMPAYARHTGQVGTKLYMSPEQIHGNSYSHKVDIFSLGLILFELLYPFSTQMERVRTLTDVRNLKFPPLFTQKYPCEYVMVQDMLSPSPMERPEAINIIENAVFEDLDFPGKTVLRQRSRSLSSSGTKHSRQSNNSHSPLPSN
# T4 sequence (P0DMV8 whole entry): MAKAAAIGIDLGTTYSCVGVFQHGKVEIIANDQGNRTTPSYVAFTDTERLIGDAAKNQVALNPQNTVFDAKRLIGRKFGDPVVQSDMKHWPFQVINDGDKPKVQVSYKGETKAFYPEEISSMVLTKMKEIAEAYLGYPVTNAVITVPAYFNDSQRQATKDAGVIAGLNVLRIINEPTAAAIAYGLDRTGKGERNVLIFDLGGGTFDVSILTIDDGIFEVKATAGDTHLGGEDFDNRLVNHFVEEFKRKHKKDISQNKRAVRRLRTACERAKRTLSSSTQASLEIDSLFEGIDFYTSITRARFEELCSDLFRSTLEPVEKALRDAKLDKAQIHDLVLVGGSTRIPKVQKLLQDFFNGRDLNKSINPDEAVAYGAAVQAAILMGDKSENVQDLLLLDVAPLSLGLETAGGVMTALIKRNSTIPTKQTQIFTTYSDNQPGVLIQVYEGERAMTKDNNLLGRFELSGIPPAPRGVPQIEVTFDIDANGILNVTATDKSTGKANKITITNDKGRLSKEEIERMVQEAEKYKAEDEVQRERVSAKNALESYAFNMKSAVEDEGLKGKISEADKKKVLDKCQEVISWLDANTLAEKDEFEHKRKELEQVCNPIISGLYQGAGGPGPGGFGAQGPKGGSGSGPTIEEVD
# Sequence of Melanocortin receptor 4 (P32245 whole entry): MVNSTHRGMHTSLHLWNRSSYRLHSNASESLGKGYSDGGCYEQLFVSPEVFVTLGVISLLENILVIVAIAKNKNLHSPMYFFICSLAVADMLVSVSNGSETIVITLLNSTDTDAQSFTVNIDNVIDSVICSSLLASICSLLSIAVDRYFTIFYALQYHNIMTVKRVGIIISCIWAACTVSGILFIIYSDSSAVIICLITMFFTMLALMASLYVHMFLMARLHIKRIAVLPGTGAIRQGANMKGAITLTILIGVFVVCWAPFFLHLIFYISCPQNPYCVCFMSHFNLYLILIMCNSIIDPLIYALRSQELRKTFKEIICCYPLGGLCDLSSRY
# Sequence of Vasopressin V1a receptor (P37288 whole entry): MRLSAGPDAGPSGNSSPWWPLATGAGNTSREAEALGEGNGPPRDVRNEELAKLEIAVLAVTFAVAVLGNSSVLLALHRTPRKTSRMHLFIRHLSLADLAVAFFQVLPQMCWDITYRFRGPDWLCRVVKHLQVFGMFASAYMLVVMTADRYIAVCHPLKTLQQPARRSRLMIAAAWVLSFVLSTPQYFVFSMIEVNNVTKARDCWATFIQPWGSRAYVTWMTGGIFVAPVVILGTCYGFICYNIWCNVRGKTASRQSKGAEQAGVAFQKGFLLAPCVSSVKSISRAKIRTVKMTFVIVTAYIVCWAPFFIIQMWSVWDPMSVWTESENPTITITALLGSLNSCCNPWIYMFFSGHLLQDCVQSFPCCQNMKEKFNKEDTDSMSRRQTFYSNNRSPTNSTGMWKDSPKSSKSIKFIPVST
# Sequence of Metabotropic glutamate receptor 4 (P31423 whole entry): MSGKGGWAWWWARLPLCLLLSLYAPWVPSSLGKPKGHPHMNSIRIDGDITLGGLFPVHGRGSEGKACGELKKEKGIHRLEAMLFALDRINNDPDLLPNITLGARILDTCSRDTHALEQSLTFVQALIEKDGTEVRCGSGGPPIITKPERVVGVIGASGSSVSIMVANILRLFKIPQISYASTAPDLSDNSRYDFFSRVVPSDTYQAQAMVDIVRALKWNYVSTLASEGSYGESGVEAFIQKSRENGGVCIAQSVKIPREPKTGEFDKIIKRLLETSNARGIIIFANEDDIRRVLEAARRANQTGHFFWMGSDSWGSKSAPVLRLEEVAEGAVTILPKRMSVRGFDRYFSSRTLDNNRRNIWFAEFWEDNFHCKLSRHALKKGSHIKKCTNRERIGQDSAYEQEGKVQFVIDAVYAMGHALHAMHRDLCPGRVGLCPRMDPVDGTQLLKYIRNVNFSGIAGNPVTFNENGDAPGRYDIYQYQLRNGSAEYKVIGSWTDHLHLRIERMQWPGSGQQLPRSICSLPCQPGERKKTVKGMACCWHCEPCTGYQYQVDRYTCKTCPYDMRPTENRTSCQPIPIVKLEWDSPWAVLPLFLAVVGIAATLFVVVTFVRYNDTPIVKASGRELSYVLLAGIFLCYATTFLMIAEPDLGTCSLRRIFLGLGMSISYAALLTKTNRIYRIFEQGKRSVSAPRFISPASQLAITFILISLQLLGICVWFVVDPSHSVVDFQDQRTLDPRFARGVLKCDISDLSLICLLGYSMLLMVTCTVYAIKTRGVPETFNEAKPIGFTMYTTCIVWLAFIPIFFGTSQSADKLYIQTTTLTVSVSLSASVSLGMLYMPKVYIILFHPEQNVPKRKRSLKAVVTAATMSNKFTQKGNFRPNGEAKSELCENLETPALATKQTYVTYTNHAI
# Sequence of G2/mitotic-specific cyclin-B1 (P14635 whole entry): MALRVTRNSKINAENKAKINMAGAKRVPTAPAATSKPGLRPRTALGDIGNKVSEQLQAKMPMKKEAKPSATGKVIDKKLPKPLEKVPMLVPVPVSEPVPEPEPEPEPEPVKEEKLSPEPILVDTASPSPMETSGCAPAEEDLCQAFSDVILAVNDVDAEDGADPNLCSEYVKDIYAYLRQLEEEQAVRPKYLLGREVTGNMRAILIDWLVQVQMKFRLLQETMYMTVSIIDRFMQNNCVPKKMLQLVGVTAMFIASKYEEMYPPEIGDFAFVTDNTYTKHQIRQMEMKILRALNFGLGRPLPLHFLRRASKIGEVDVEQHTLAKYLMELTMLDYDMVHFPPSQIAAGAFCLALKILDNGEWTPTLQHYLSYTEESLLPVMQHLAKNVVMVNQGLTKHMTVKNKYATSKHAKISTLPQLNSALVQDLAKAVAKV
# Sequence of Wee1-like protein kinase (P30291 whole entry): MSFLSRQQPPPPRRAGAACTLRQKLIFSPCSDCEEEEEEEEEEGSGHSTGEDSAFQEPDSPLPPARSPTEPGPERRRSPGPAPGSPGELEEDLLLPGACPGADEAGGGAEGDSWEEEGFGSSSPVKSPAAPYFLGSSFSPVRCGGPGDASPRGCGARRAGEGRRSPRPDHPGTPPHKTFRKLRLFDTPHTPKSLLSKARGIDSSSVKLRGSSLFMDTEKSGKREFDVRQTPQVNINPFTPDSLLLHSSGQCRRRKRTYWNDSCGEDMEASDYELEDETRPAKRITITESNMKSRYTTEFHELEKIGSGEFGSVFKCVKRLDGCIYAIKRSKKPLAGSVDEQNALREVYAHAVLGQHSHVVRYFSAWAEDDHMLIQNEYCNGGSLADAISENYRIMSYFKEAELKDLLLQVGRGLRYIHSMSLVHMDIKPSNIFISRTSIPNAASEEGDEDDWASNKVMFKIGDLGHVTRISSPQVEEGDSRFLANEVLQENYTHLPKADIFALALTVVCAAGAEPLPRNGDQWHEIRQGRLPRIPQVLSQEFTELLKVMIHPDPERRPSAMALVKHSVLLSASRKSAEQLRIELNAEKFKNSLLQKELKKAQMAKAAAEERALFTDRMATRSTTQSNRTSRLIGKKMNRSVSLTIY
# Sequence of Lysosomal acid glucosylceramidase (P04062 whole entry): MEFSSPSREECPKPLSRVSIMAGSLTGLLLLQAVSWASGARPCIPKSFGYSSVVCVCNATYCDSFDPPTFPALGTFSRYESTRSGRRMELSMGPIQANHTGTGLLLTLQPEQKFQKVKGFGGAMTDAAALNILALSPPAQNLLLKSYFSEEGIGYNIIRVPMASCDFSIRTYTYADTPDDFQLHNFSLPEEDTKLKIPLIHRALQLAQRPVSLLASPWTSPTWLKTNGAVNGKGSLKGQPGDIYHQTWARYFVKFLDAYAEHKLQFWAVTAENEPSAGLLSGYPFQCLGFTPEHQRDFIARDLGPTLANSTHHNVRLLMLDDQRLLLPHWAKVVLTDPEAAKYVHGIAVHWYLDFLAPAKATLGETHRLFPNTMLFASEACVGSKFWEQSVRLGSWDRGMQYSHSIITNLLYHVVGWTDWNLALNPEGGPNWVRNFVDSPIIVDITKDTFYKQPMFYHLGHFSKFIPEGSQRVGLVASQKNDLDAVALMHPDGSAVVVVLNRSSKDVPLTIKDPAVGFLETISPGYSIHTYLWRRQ
smiles,measurement,setting,value
COc1ccc(-c2nc(NC(=O)c3ccc(OCC(=O)N4CCOCC4)c(OC)c3)sc2C)cc1,IC50,[1],83.5 µM (active)
same,IC50,H9c2,> 79 µM (inactive)
CN(C)c1ccc(C(c2cc3c(cc2O)OCO3)N2CCOCC2)cc1 (centres undefined),IC50,[2],> 40 µM (not active)
O=C(Nc1ccc(N2C(=O)c3cccc(Cl)c3C2=O)c(Cl)c1)c1ccccn1,EC50,[3],0.03 µM (active)
COc1ccc(N=C(C)N(C)CCNS(=O)(=O)c2ccc(Cl)cc2)cc1Cl,IC50,[4],> 100 µM (inactive)
same,EC50,[5],0.271 µM (active)
same,EC50,[6],> 60 µM (not active)
same,IC50,[7],5.82 µM (active)
Cc1csc2sc(-c3ccnc(SCC(=O)NCc4ccccc4)n3)c(C)c12,EC50,[8],> 49.7 µM (not active)
same,EC50,Wee1-like protein kinase,> 49.7 µM (not active)
same,IC50,[9],> 80 µM (inactive)
CCCC[C@@H]1C[C@H]1C(NP(=O)(c1ccccc1)c1ccccc1)c1ccc(Cl)cc1 (some centres undefined),AC50,Cytochrome P450 2C19,10 µM (inconclusive)
same,AC50,Cytochrome P450 2C9,15.8 µM (inconclusive)
O=C(NNc1ccccc1F)c1ccccc1,EC50,[10],> 55.7 µM (not active)
same,EC50,[11],> 55.7 µM (not active)
Cc1ccc(-n2ncc(Cl)c(Oc3ccc(F)cc3F)c2=O)cc1,IC50,[12],17.4 µM (inactive)
CCC(C)n1cnc2c(c1=O)c1nc3ccccc3nc1n2Cc1ccc2c(c1)OCO2 (centres undefined),EC50,[13],> 10 µM (not active)
O=C(N/N=C/c1ccco1)c1ccccc1OCc1ccc(Br)cc1,IC50,[14],5.34 µM (active)
same,IC50,[15],9.08 µM (active)
"COc1ccc(-c2coc3c(OC)c(OC)cc(O)c3c2=O)cc1 [ISOTECTORIGENIN, 7-METHYL ETHER]",AC50,Cytochrome P450 3A4,39.8 µM (inconclusive)
CC(C)(C)n1nnnc1C(c1ccc2ncccc2c1)N1CCSCC1 (centres undefined),IC50,[16],> 100 µM (not active)
same,IC50,[17],> 100 µM (not active)
N#CC1(C#N)C2=C(CCCC2)NC(c2ccccc2)C1(C#N)C#N (centres undefined),EC50,[18],3.77 µM (active)
same,EC50,[19],7.92 µM (active)
O=C(O)c1cc(-c2ccc3c(c2)OCO3)nc2ccc(Br)cc12,IC50,[20],> 39.8 µM (not active)
same,IC50,[21],1.76 µM (active)
same,IC50,Melanocortin receptor 4,35.7 µM (inactive)
same,IC50,[22],> 64.6 µM (inactive)
Cc1c(NC(=O)/C(C#N)=C/c2ccc(-c3ccc(Cl)cc3)o2)c(=O)n(-c2ccccc2)n1C,IC50,[23],11.1 µM (not active)
same,IC50,Insulin-degrading enzyme,2.7 µM (active)
Cc1ccc(NS(=O)(=O)c2ccc(C(=O)NCC(c3ccco3)N3CCCCC3)cc2)cc1 (centres undefined),EC50,Vasopressin V1a receptor,> 29.9 µM (not active)
same,EC50,Oxytocin receptor,> 29.9 µM (not active)
same,CC50,Vero,> 25 µM (active)
CN(Cc1ccccc1)C(=O)C1CCCN(Cc2ccc([N+](=O)[O-])cc2)C1 (centres undefined),AC50,Trypanosoma cruzi,7.63 µM (active)
